# Data as given in patent publication US10745365B2, “Luminogenic and fluorogenic compounds and methods to detect molecules or conditions” (Promega Corporation, priority 2005, dated 2020).
# Key:
# Format in all cases: biochemical
# [1] = tested on: thermostable luciferase (Luc 146-1H2); test: Light emission of thermostable luciferase with luciferin derivatives; details: 100 μM each
# Procedure: This stock was used to produce enzyme stock solution having of 200 μg/ml enzyme solution in 1 mg/ml BSA, 200 mM HEPES buffer, pH 8.0, 20 mM MgCl2.
# Solutions were made using a 1 M DTT solution, pH adjusted to 8.0, a 20 mM Coenzyme A solution in water (both described in examples above), a 100 mM ATP solution and water to create the following solutions: Sol′ A, 100 μM ATP; Sol′B, 100 μM ATP, 4 mM Coenzyme A; Sol′n C, 100 μM ATP, 400 mM DTT, and; Sol′n D, 100 μM ATP, 4 mM Coenzyme A and 400 mM DTT.
# After assembly, the reactions were initiated by addition of 25 μl of the thermostable luciferase stock solution above and mixing the tube contents. A 50 μl sample was immediately removed and placed in a luminometer tube and the light read and the tube then replaced in a tube rack at room temperature. While the light reading was being taken, a 5 μl sample of the remaining reaction (which was kept at room temperature) was diluted into 495 μl of 50 mM BisTris, pH 6.5, 1 mg/ml BSA, 1 mM EDTA prechilled to 4° C. and the tube mixed and placed on ice. The light produced by the samples in the luminometer tubes were re-read at 20, 40, 60, 90 and 120 minutes post enzyme addition. Additional 5 μl samples were taken and diluted as above at 60 and 120 minutes post enzyme addition. Once all these readings and samples were taken, 50 μl of the diluted samples was mixed with 50 μl of Steady Glo in luminometer tubes, the tubes incubated 10 minutes […] then the light produced was read on a Turner TD 20/20 luminometer.
# [2] = target: T1, QuantiLum Luciferase (firefly luciferase) (Photinus pyralis, UniProt P08659); test: Residual active QuantiLum luciferase after reaction with derivative (Steady Glo)
# T1 construct: purchased Promega Corporation El 70
# T1 sequence (P08659 whole entry): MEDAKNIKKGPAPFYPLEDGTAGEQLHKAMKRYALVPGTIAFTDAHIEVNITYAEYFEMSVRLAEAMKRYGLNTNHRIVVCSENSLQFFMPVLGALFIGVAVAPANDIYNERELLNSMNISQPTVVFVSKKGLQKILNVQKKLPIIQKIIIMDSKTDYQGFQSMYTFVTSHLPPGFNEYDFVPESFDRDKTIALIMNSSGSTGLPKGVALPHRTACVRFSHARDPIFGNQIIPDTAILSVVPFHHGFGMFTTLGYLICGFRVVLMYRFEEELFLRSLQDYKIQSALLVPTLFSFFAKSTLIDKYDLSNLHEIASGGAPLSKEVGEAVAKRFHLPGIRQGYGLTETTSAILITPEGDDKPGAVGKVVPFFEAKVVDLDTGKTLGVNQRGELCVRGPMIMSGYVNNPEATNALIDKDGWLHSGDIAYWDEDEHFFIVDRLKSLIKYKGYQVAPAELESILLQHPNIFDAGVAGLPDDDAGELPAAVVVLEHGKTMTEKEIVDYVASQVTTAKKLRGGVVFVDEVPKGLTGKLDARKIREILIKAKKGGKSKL
# Procedure: (§1) After producing the solutions in Table 37, the volume of all reactions was adjusted to 990 μl with water. […] While the light reading was being taken, a 10 μl sample of the reaction was diluted to 500 μl with enzyme stop solution (cooled on ice to 4° C.) mixed and placed on ice and a second sample of 90 μl of reaction was added to 10 μl of Gel/HPLC stop and the tube placed at −20° C. A timer was started with the start of the first reaction and the start times of the remaining reactions was noted. At 15, 30, 45 and 60 minutes, each reaction was sampled as above and the light produced in the luminometer tubes was measured. At 7 and 22 minutes, the light produced in the luminometer tubes was read, but the reactions were not sampled.
# After all samples were taken, 50 μl of the sample diluted into enzyme stop solution was mixed with 50 μl of Steady Glo Luciferase Reagent (Promega) and the light produced measured after incubating at room temperature for 10 minutes. This measured the active luciferase in the initial reaction.
# as §1, with “40,” for “37,”, “−200” for “−20°”
# [3] = target: T1, QuantiLum Luciferase (firefly luciferase); test: Light emission of QuantiLum firefly luciferase with luciferin derivatives; details: for Light emission, Alone: Alone (no addition)
# Procedure: Gel and HPLC stop solution. Solid EDTA (free acid) was placed in a beaker with water and the pH of the solution adjusted to pH 7.0. The solution was then adjusted in volume to produce a solution 400 mM in EDTA.
# Enzyme stop solution. A solution was prepared containing 20 mM Bis Tris, pH 6.5, 2 mM EDTA and 1 mg/ml bovine serum albumin.
# Reaction buffer (2×). A solution was made containing 100 mM HEPES buffer, pH 8.0; 10 mM MgCl2.
# DTT stock. Solid DTT (dithiothreitol) was dissolved in water and then adjusted to pH 8.0 with solid sodium hydroxide. The solution was then adjusted in volume to produce a solution 1 M in DTT.
# as §1
# as §1, with “40,” for “37,”, “−200” for “−20°”
# The DTT, Coenzyme A, and QuantiLum stock solutions are the same as those described herein.
# This solution was diluted 1:1 with water to produce an enzyme solution labeled “No addition.” This solution was diluted 1:1 with 400 mM DTT, pH 8.0 to produce a solution labeled+DTT. This solution was diluted 1: 1 with 4 mM Coenzyme A to produce a solution labeled+Co A. Finally, this solution was diluted 1: 1 with a solution having both 4 mM Coenzyme A and 400 mM DTT to produce a solution labeled+Co A & DTT.
# 50 μl samples of these solutions were placed in the wells of luminometer microtiter plates, row A to row G, respectively. Row H of the plates was given 50 μl of water.
# Reactions in these plates were initiated by addition of 50 μl of solution containing QuantiLum luciferase using a 12 channel micropipette. The solutions added to the rows were: columns 1, 5, and 9—no addition solution; columns 2, 6, and 10—+Co A solution; columns 3, 7, and 11—+DTT solution, and; columns 4, 8, and 12—+Co A and DTT solution. After addition of the enzyme solution to the first row on every plate, a timer was started. After addition of the enzyme solution to the last row on each plate, the plate was sealed and read on a Veritas luminometer.
structure (smiles),measurement,setting,value
CN(C)c1ccc2nc(C3=NC(C(=O)O)CS3)sc2c1 (stereo not shown) [dimethyl amino luciferin],brightness relative to amino luciferin,[1],only about half as bright
O=C(O)[C@H]1CSC(c2nc3ccc(OCc4ccccc4)cc3s2)=N1 [Luc’in BE],Light reading from residual active enzyme at time 0 min,[2]; +Co A,186.7
same,Light reading from residual active enzyme at time 15 min,[2]; +Co A,179.6
same,Light reading from residual active enzyme at time 30 min,[2]; +Co A,179.4
same,Light reading from residual active enzyme at time 45 min,[2]; +Co A,157.9
same,Light reading from residual active enzyme at time 60 min,[2]; +Co A,161.8
same,Light reading from residual active enzyme at time 0 min,[2]; +DTT,194
same,Light reading from residual active enzyme at time 15 min,[2]; +DTT,233.7
same,Light reading from residual active enzyme at time 30 min,[2]; +DTT,224.7
same,Light reading from residual active enzyme at time 45 min,[2]; +DTT,219.5
same,Light reading from residual active enzyme at time 60 min,[2]; +DTT,226.4
same,Light reading from residual active enzyme at time 0 min,[2]; +EDTA,170
same,Light reading from residual active enzyme at time 15 min,[2]; +EDTA,142.7
same,Light reading from residual active enzyme at time 30 min,[2]; +EDTA,140.4
same,Light reading from residual active enzyme at time 45 min,[2]; +EDTA,141.7
same,Light reading from residual active enzyme at time 60 min,[2]; +EDTA,135.4
same,Light reading from residual active enzyme at time 0 min,[2]; No addition,129.7
same,Light reading from residual active enzyme at time 15 min,[2]; No addition,69.9
same,Light reading from residual active enzyme at time 30 min,[2]; No addition,47.31
same,Light reading from residual active enzyme at time 45 min,[2]; No addition,37.94
same,Light reading from residual active enzyme at time 60 min,[2]; No addition,29.08
same,Light reading from residual active enzyme at time 0 min,[2]; w/o ATP,168.3
same,Light reading from residual active enzyme at time 15 min,[2]; w/o ATP,174.1
same,Light reading from residual active enzyme at time 30 min,[2]; w/o ATP,171.7
same,Light reading from residual active enzyme at time 45 min,[2]; w/o ATP,172.9
same,Light reading from residual active enzyme at time 60 min,[2]; w/o ATP,164
same,Light reading at time 0 min,[3]; +Co A,139.5
same,Light reading at time 7 min,[3]; +Co A,11.92
same,Light reading at time 15 min,[3]; +Co A,10.99
same,Light reading at time 22 min,[3]; +Co A,9.941
same,Light reading at time 30 min,[3]; +Co A,7.379
same,Light reading at time 45 min,[3]; +Co A,7.284
same,Light reading at time 60 min,[3]; +Co A,6.433
same,Light reading at time 0 min,[3]; +DTT,948
same,Light reading at time 7 min,[3]; +DTT,532.8
same,Light reading at time 15 min,[3]; +DTT,417
same,Light reading at time 22 min,[3]; +DTT,369.5
same,Light reading at time 30 min,[3]; +DTT,331.6
same,Light reading at time 45 min,[3]; +DTT,273.5
same,Light reading at time 60 min,[3]; +DTT,226.9
same,Light reading at time 0 min,[3]; +EDTA,1.004
same,Light reading at time 7 min,[3]; +EDTA,0.771
same,Light reading at time 15 min,[3]; +EDTA,0.639
same,Light reading at time 22 min,[3]; +EDTA,0.562
same,Light reading at time 30 min,[3]; +EDTA,0.461
same,Light reading at time 45 min,[3]; +EDTA,0.425
same,Light reading at time 60 min,[3]; +EDTA,0.354
same,Light reading at time 0 min,[3]; No addition,135.2
same,Light reading at time 7 min,[3]; No addition,22.61
same,Light reading at time 15 min,[3]; No addition,12.79
same,Light reading at time 22 min,[3]; No addition,9.256
same,Light reading at time 30 min,[3]; No addition,6.928
same,Light reading at time 45 min,[3]; No addition,4.879
same,Light reading at time 60 min,[3]; No addition,3.311
same,Light reading at time 0 min,[3]; w/o ATP,0.015
same,Light reading at time 7 min,[3]; w/o ATP,0
same,Light reading at time 15 min,[3]; w/o ATP,0.008
same,Light reading at time 22 min,[3]; w/o ATP,0.005
same,Light reading at time 30 min,[3]; w/o ATP,0
same,Light reading at time 45 min,[3]; w/o ATP,0
same,Light reading at time 60 min,[3]; w/o ATP,0.01
"O=C(O)[C@H]1CSC(c2nc3ccc(OCc4ccccc4)cc3s2)=N1 [luciferin-6-benzylether, reference compound]","Light emission, Co A","[3]; Derivative Conc. 3.13 μM, +Co A",55778
same,"Light emission, Co A + DTT",[3]; Derivative Conc. 3.13 μM,80626
same,"Light emission, DTT","[3]; Derivative Conc. 3.13 μM, +DTT",86445
same,"Light emission, Alone",[3]; Derivative Conc. 3.13 μM,32994
same,"Light emission, Co A","[3]; Derivative Conc. 6.25 μM, +Co A",58288
same,"Light emission, Co A + DTT",[3]; Derivative Conc. 6.25 μM,105912
same,"Light emission, DTT","[3]; Derivative Conc. 6.25 μM, +DTT",100044
same,"Light emission, Alone",[3]; Derivative Conc. 6.25 μM,38838
same,"Light emission, Co A","[3]; Derivative Conc. 25 μM, +Co A",53097
same,"Light emission, Co A + DTT",[3]; Derivative Conc. 25 μM,90306
same,"Light emission, DTT","[3]; Derivative Conc. 25 μM, +DTT",84034
same,"Light emission, Alone",[3]; Derivative Conc. 25 μM,40093
same,"Light emission, Co A","[3]; Derivative Conc. 50 μM, +Co A",38349
same,"Light emission, Co A + DTT",[3]; Derivative Conc. 50 μM,98716
same,"Light emission, DTT","[3]; Derivative Conc. 50 μM, +DTT",80001
same,"Light emission, Alone",[3]; Derivative Conc. 50 μM,30609
same,"Light emission, Co A","[3]; Derivative Conc. 100 μM, +Co A",33199
same,"Light emission, Co A + DTT",[3]; Derivative Conc. 100 μM,64460
same,"Light emission, DTT","[3]; Derivative Conc. 100 μM, +DTT",54592
same,"Light emission, Alone",[3]; Derivative Conc. 100 μM,31581
O=C(O)C1CSC(c2nc3ccc(NCCCO)cc3s2)=N1 (stereo not shown) [N-(3-hydroxypropyl)-aminoluciferin],luciferase substrate,[3],substrate for luciferase that provides sufficient light output for a luminescence reaction
